In patent US20100158842A1, “NATURAL SKIN WHITENER: 4-HYDROXY-OXINDOLE-3-ACETIC ACID” (SPECTRUM DYNAMICS LLC, priority 2008, published 2010):

How the values were obtained:
[1] = system: mushroom tyrosinase enzyme; assay: Anti-tyrosinase activity assay; format: biochemical; settings: 150 microgram/ml, 30 minute test end-point; FIG. 7
Experimental: For this purpose, a modified assay method of anti-tyrosinase activity described in the literature was employed (Chang T S and Tseng M J., Mar. Sci. Technol., 14: 190-193, 2006). The assay employs mushroom tyrosinase enzyme to enzymatically convert a colorless solution tyrosine to a black melanin product. The anti-tyrosinase activity is measured by the reduction of black color development in the presence of the inhibitor, which in this instance is Tasselin A. FIG. 7 is a graph showing the inhibiting effect of two different concentrations of purified Tasselin A on tyrosinase activity as 50% reduction at a concentration of 150 microgram/ml over the 30 minute test end-point.

[2] = DPPH* free-radical scavenging assay; settings: 100 microgram per milliliter in ethanol; FIG. 4
Experimental: Purified Tasselin A has been assayed and determined its free-radical scavenging activity. FIG. 4 present typical results of standardized 1,1-diphenyl-2-picrylhydrazyl radical (DPPH*) reagent test as previously described (Bonina et al, 2002). This test was previously disclosed and employed on crude corn tassel alcoholic extracts (Wille J J: U.S. Pat. No. 7,399,439). Here we confirm that purified Tasselin A has potent antioxidant activity. A 1.0 mg/ml stock solution of purified Tasselin A in ethanol was diluted with anhydrous ethanol to a final concentration of 100 microgram per milliliter and assayed in the DPPH* free-radical scavenging assay.

human forearm skin = assay: Inhibition of skin irritation induced by 24-hour occlusion with benzalkonium chloride; format: in vivo; settings: 0.01% (100 micrograms/milliliter) co-administered with 0.4% benzalkonium chloride, volar forearm, FIG. 5
Description: The anti-irritant activity of purified Tasselin A has been assessed by determining its ability to inhibit skin irritation induced by 24-hour occlusion of human forearm skin with a solution of 0.4% benzalkonium chloride (BC) with or without inclusion of 0.01% (100 micrograms/milliliter) of purified Tasselin A. FIG. 5 is a photograph of the volar surface of a subject forearm immediately after removal of the occlusive dressing. There are two circled skin areas: A) control site, and B) test site.

[3] = Storage stability of lyophilized powder; format: physicochemical; settings: milligram quantities, under vacuum
Description: Given these physical properties, Tasselin A has been formulated in both lotion and cream as described in the Tables III, IV, and V below.

Solubility = format: physicochemical; settings: water, methanol/ethanol
Description: There is also disclosed here a method of making a cosmetic ingredient with the chemical composition and structure of 4-hydroxy-oxindole-3-acetic acid. The chemical compound was identified in extracts of corn tassels. In particular, seasonally aromatic corn tassels were harvested as previously described in U.S. Pat. No. 7,399,493 with particular attention to harvesting the tassel at the peak time of aroma production. They were collected simply by shaking the tassels directly into collecting sacks conveyed to the laboratory where they are immersed directly into ice-cold absolute alcohol and extracted for 24-48 hours at 0-4° C. Crude alcohol extracts have a light green color and a fragrance reminiscent of bee's wax. The extract is further clarified low speed centrifugation followed by filtration through a 0.4 micron nitrocellulose filter and the resulting sterile solution stored at −20° C. until further needed or then concentrated by vacuum rotary evaporation to obtain a slightly viscous mass. This material served as the starting point for chemical analysis. Dilutions of the ice-cold crude extract was submitted to preliminary assessment of its anti-oxidant activity. High pressure liquid chromatography (HPLC) was employed to determine the principle phenolic components of the tassel extract. […]

O=C(O)CC1C(=O)Nc2cccc(O)c21 (centres unmarked) [Tasselin A, 2,3-dihydro-4-hydroxy-2-oxo-1H-indole-3-acetic acid]
reduction of tyrosinase activity [1]: 50% | reduction in absorbance measured at 595 nm [2]: 40% | visual scoring of skin irritation (swelling, erythema) at test site (human forearm skin): no swelling or redness | storage as dry powder [3]: successfully lyophilized and stored as a dry powder under vacuum for up to a year | solubility (Solubility): both water and methanol/ethanol soluble
